# Laboratory results: patent US7052850B2, “Isolated human EDG-4 receptor” (priority 1997, dated 2006)
# Key:
# Assay type in all cases: cell-based
# [1] = test system: EDG-7; test: SRE reporter, EDG-7
# [2] = test system: Human Umbilical Vein Endothelial Cells (HUVEC); test: IL-8 response in primary cultured HUVEC; conditions: 5 μM, 6 hr
# Description: Cells: HUVEC (Clonetics, Cat. CC-2519) were passaged according to supplier's instructions and used at passage 3. Cells were plated at 20,000 cells/well into 24-well plates. […] LPA induced a 3-fold IL-8 increase at this concentration. […] As shown below in FIG. 23, three cloned edge receptors respond to LPA as an agonist, and all three appear to transduce NF-κB activation in an agonist-dependent manner.
# [3] = test system: EDG-7; test: NF-κB reporter, EDG-7
# [4] = target: T1, EDG-1 (Homo sapiens, UniProt P21453); test: NF-κB luciferase reporter in 293-EBNA cells, EDG-1; conditions: Assay 3; 3 μM; 6 hours
# T1 sequence (P21453 whole entry): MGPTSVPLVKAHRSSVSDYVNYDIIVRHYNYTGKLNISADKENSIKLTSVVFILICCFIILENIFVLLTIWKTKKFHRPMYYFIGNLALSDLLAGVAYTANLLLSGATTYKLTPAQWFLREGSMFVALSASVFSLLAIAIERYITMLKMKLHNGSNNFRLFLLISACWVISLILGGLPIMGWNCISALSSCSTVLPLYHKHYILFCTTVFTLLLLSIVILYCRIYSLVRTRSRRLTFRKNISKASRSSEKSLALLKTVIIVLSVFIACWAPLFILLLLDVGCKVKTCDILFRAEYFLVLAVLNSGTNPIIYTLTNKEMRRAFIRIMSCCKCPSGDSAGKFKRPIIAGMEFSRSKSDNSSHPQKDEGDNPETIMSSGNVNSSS
# Description: (§2) The protocol described in Example 11 for Assay 1 was allowed except for the following changes: • 1) 100 mm plates of 293-EBNA ith a confluency of ˜80% were used for transfection, • 2) SRE Cotransfection: 0.5 μg of 2XSREtk-p4Luc-zeo reporter DNA and 3.5 μg pcDNA3, EDG-1, EDG-3 pC3-hE3P2, different from the clone used in Assay 2 of Example 11) or the newly cloned human EDG-4 (pC3-hedg4#36); NF-κB Cotransfection: 2 μg 6XNFκBtk-p4LUc-zeo reporter DNA and 2.0 μg pcDNA3, EDG-1, EDG-3 (pC3-hE3HP2), or EDG-4 (pC3-hedg4#36). Expression plasmid and reporter plasmid DNA samples were combined and diluted in 750 μl of DMEM/F12 (serum free media) and 20 μl Plus Reagent (Lipofectamine Plus Kit, Life Technologies Cat. 109640-13), and incubated at room temperature for 15 min. • 3) 30 μl Lipofectamine Reagent (Lipofectamine Plus Kit) was diluted in 750 μl DMEM/F12. The diluted Lipofectamine was then combined with the DNA/Plus mixture and incubated at room temperature for 15 min. • 4) The 293-EBNA plates were washed once with PBS and 5 ml DMEM/F12 was added to each plate. • 5) DNA/Plus/Lipofectamine mixture was added to each plate of 293-EBNA cells. […]
# [5] = target: rat EDG-4 (Rattus norvegicus, UniProt P47752); test: NF-κB-tk-p4Luc luciferase reporter in 293-EBNA cells, rat EDG-4; design: transient transfection with a eukaryotic expression vector expressing full-length rat edg-4 cDNA; expressed in transfected cells; host or cells: 293-EBNA
# Sequence of rat EDG-4 (P47752 whole entry): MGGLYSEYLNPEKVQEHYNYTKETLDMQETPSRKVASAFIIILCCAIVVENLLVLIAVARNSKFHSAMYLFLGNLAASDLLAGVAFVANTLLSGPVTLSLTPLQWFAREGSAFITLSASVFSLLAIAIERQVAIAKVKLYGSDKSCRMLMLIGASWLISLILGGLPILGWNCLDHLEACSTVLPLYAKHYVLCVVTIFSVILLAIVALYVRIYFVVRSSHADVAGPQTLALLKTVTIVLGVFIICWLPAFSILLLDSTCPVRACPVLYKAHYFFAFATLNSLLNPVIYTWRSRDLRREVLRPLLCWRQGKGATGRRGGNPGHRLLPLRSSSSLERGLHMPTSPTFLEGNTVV
# Description: First, the NF-κB response element was reconstructed in a new reporter construct (p4Luc) suitable for stable maintenance as an episome in primate cells. […] The p4-Luc reporter used the backbone of pREP4 (Invitrogen; Cat. V004-50), which contains the EBV orgin of replicaiton (EBVoni), as well as the EBNA-1 viral antigen required to maintain EBVoti containing plasmids as stable episoms in primate cells, and a prokayotic selection marker. A dominant eukaryotic selection marker for zeocin resistance was substituted for expression in pREP4. The promoter of pREP4 was then excised and replaced with a multi-cloning site for introduction of promoter/enhancer inserts. The NF-κB inser of the previous CAT reporter was subcloned into this site and all cloning junctions were sequenced to verify the structure of the plasmid, called NF-κB-tk-p4Luc.
# • 1) 150 mm plates of 293-EBNA obtained from Invitrogen (Cat. R620-07) with a confluency of 18 80% were used for transfection. • 2) 6.6 μg NF-κB-tk-p4Luc reporter DNA and 6.6 μg of pC3-redg4 (expressing rat EDG-4), or pcDNA3 DNA was diluted in 500 μl OPTI-MEM (Gibco; Cat. 31985-062) • 3) 96.8 μl Lipofectamine (Gibco; Cat. 18324-020) was diluted in 500 μl of OPTI-MEM. • 4) The 2 solutions were mixed gently and the tube was incubated for 30 min at room temperature. • 5) The 293-EBNA plates were washed once with PBS and 13 ml OPTI-MEM was added to each plate, • 6) 6 ml OPTI-UMM was added to each transfection tube and this was added to a plate of 293EBNA cells. The plates were left for 4 hrs at 37° C. in a 5% CO2 incubator. • 7) After 4 his, the media was removed and replaced with frest 10% FBS media. Day 2: • 1) Transfected cells were washed, typsinized with 1× tryspin, resuspended in 10 ml media and counted. • 2) 0.02×10 ^6 cells were plated per well of a 96-well Blackview plate coated with polyD-lysine. No cells were plated in the outside wells of the 96-well plate. Two 96-well plates were seeded for each transfection. Day 3: • 1) Cells were washed with PBS and 140 μl serum-free media (SFM) added to each well. Plates were incubated in 37° C. incubator for 6 hrs. • 2) After 6 hrs, media was removed and cells treated with compounds diluted in 0.5% FBS media (140 μl added to each well).
# Day 4 Luciferase Assay • 1) Luclite kit (Packard; Cat. 6016911) was used for luciferase assay. All reagents were brought to room temperature before use. • 2) Supernatant was transferred to a new 96-well plate and stored at −20 C. for rupture IL-8 measurement. • 3) 50 μl 0.5 M HEPES pH 7.8 buffer (1 mM MgCl21 mM CaCl2) was addeded to all wells of 96-well plate. Black adhesive backing (polyfitronics) was aligned to the bottom of the viewplate. • 4) Luclite substrate was made up by adding 10 ml substate diluent to 1 vial lyophilized substrate. Reconstituted substrate was kept under a dark container. 50 μl substrate was added to each well. • 5) A clear adhesive plate sealer was adjusted on to the viewplate and sealer rubbed over the plate with a Kimwipe. The plate was shaken on a plate shaker at 500 rpm for 5 seconds right side up and then upside down. A stop plate was placed on top of the blackview plate to keep it in the dark. • 6) Plates were incubated at room temperature for 30 min. • 7) After incubation, plates were counted in a 12 detector Packard Top Count on a program without dark delay.
# [6] = test system: COS-1 cells; test: IL-8 response in control COS-1 cells (empty vector pcDNA3); conditions: control cells transfected with pcDNA3; 5 μm S1P
# [7] = target: human EDG-3 (Homo sapiens, UniProt Q99500); test: SRE luciferase reporter in 293-EBNA cells, human EDG-3; conditions: Assay 3; pancreas clone pC3-E3HP2; 3 μM
# Sequence of human EDG-3 (Q99500 whole entry): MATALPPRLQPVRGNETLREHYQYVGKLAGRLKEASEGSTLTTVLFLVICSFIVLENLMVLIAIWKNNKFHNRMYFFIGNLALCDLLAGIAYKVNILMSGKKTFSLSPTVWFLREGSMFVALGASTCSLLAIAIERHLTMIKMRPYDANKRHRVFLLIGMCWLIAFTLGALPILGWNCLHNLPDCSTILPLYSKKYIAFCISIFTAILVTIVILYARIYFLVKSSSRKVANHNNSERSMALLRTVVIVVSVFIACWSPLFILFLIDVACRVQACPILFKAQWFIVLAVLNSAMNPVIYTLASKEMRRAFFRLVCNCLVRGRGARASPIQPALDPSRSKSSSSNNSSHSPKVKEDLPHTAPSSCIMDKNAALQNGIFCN
# Description: as §2
# [8] = target: T1, EDG-1; test: SRE luciferase reporter (2XSREtk-p4Luc-zeo) in 293-EBNA cells, EDG-1; conditions: Assay 3; 3 μM; 6 hours
# Description: as §2
# [9] = test system: pcDNA3-transfected cells; test: Calcium microfluorimetry (fura-2), pcDNA3-transfected 293-EBNA cells; conditions: 2 μM S1P
# Description: Transfections were carried out with EDG receptors in 293-EBNA cells as described above, except that no reporter gene vector was included in the DNA mix. Two days after transfection, cells were harvested by trypsinization and plated at a density of 200,000 cells onto poly-D-lysine-coated coverslips in 100 μl of medium containing 0.5% FBS. After briefly allowing cell attachment to take place, 2 ml of medium without FBS was added and the cells were incubated overnight. The next day, cells were loaded with 5 μM fura-2 AM ester (Molecular Probes) for 60 min at RT, then washed and used for calcium microfluorimetry. […] Treatments were applied using a gravity-fed perfusion apparatus. Fluorescence emission was continuously monitored and recorded with PTI 2.060a software and analyzed with Sigma Plot software. Intracellular calcium concentrations were calculated by interpolation on a ratiometric fluorescence curve generated from fura-2 fluorescence in a calcium dilution series.
# [10] = target: T2, EDG-6 (Homo sapiens, UniProt Q9HBW0); test: SRE reporter in 293-EBNA cells, EDG-6; conditions: 10 μM LPA
# T2 construct: expressed in transfected cells; host or cells: 293-EBNA
# T2 sequence (Q9HBW0 with tags, fused parts or gaps): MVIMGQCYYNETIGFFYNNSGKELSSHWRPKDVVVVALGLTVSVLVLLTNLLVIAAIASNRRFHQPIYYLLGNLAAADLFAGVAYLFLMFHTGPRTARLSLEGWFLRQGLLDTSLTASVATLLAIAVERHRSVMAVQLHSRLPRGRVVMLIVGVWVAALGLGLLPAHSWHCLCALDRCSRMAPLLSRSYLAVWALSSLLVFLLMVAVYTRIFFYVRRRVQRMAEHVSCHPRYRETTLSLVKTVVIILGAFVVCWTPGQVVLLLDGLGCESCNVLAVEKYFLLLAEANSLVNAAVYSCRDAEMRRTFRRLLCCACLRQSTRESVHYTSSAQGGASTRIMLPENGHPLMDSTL
# Text: (§1) LPA, like S1P, is abundant in serum, but not plasma. Moreover, LPA is produced as a consequence of phospholipase A2 with or without the contribution of phospholipase D (depending on the phospholipid substrate). […] To date we have identified three subtypes of edg receptors that respond to LPA as an agonist. These are EDG-2, […] (referred to also as LPA1, LPA2 and LPA3, respectively (Chun, J, Contos, JJA and Munroe, DG. 1998. A growing family of receptor genes for lysophophatidid acid (LPA) and other lyso-phospholipids. Cell Biochem Biophys (in press)). The EDG-5 receptor is set out in co-pending U.S. application Ser. No. 08/997,803 to MUNROE et al., incorporated herein to reference and the amino acid sequence and cDNA sequence for the EDG-6 receptor is set out in FIGS. 21 and 22, respectively. To determine whether these receptors might mediate inflammatory responses, each was cotransfected separately with SRE, NF-κB or AP-1 reporter genes. […] This transcription factor, like NF-κB has been implicated in inflammatory and neoplastic signal transduction, though the gene targets of its action are largely distinct from those of NF-κB (Adcock I M. 1997. Transcription factors as activators of gene transcription; AP-1 and NF-κB. Monaldi Arch Chest Dis 52:178–186. Review). […]
# [11] = target: T3, human EDG-5 (Homo sapiens, UniProt Q9UBY5); test: NF-κB luciferase reporter in 293-EBNA cells, human EDG-5; conditions: 10 μM LPA overnight
# T3 construct: expressed in transfected cells; host or cells: 293-EBNA
# T3 sequence (Q9UBY5 1-353): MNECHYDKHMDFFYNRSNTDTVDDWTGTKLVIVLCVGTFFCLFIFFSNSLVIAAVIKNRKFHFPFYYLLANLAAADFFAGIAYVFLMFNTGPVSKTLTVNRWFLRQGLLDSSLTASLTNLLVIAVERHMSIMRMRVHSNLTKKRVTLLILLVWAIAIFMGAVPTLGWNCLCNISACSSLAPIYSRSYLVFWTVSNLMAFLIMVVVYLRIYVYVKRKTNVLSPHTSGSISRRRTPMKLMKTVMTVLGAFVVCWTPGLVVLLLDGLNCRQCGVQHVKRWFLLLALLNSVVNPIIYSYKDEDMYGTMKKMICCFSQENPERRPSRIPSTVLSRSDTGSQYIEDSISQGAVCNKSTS
# Description: The above protocol for assay 1 was followed except for the following changes: • 1) 100 mm plates of 293-EBNA with a confluency of ˜80% were used for transfection. • 2) 3 μg NFκB-tk-p4Luc reporter DNA and 3 μg pC3-hedg1, pC3-hedg 3, pC3-redg4, pC3-hedg5 or pcDNA3 DNA was diluted in 240 μl OPTI-MEM (Gibco; Cat. 31985-062) • 3) 22 μl lipofectamine (Gibco; Cat. 1 8324-020) was diluted in 240 μl OPTI-MEM. • 4) The 293-EBNA plates were washed once with PBS and 7 ml OPTI-MEM was added to each plate. • 5) DNA/lipofectamine mixture was added to each plate of 293-EBNA cells. The plates were left for 4 hrs at 37° C. in a 5% CO2 incubator. Day 2: • 1) 0.01×10^6 cells were plated per well of 96-well Blackview plate coated with polyD-lysine. No cells were plated in the outside wells of the 96-well plate. Day 3: The following treatments were used for all transections:
# 293-EBNA cells were grown, lipofected in monolayer cultures, and pretreated as described above for Example 11, assay #1, except that NF-κB and AP-1 reporter-transfected cells were preteated for 6 hr in medium containing 0.5% […], then treated overnight in the same medium with or without 10 μM LPA.
# [12] = test system: pcDNA3-transfected 293-EBNA cells; test: AP-1 reporter in 293-EBNA cells, empty vector pcDNA3; conditions: 10 μM LPA
# Text: as §1
# [13] = target: T4, EDG-2 (Homo sapiens, UniProt Q92633); test: NF-κB reporter in 293-EBNA cells, EDG-2; conditions: 10 μM LPA overnight
# T4 construct: expressed in transfected cells; host or cells: 293-EBNA
# T4 sequence (Q92633 whole entry): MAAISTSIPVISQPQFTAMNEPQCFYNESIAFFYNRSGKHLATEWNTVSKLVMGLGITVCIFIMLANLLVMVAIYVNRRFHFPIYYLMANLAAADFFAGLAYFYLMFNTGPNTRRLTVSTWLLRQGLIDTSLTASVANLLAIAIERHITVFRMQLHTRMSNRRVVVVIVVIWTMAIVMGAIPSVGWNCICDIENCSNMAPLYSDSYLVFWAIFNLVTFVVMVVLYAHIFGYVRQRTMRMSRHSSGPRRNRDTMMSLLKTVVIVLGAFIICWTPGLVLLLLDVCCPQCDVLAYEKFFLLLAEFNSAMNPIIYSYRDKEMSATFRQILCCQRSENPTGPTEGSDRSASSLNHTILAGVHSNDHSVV
# Text: as §1
induction of the SRE reporter [10],activation of the NF-κB reporter [11],activation of the NF-κB reporter [13],Molecule,SRE reporter response [1],"IL-8 levels, increase over untreated controls [2]",NF-κB reporter response [3],luciferase activity (NF-κB reporter) [4],"increase in luciferase activity ([5]; Assay 1, 1 μM S1P, 24 hrs) [fold]","increase in luciferase activity ([5]; Assay 1, 5 μM or 10 μM S1P, 24 hrs)","increase in luciferase activity ([5]; Assay 2, 3 μM) [fold]",IL-8 response to S1P [6],SRE reporter response [7] [fold],increase in luciferase activity (SRE reporter) [8] [fold],change in intracellular calcium [9],"induction of NF-κB reporter ([5]; Assay 1, 24 hrs)",endogenous AP-1 reporter response vs untreated control cells [12]
,,,"CCCCCCCCCCCCC/C=C/[C@@H](O)[C@@H](N)COP(=O)(O)O [S1P, sphingosine 1-phosphate]",respond through the SRE reporter,approximately 5 fold,fail to signal through NF-κB reporters,no increase in luciferase activity,2,4–4.5 fold,3.5,No IL-8,12,8,approximately 60 nM,,
,,,"CCCCCCCCCCCCC/C=C/[C@@H](O)[C@@H](N)COP(=O)([O-])OCC[N+](C)(C)C [SPC, sphingosylphosphorylcholine]",,Marginal increases,,,,,4,,11,,,induced the reporter gene,
strongly induced,3–4 fold,3–4 fold,lysophosphatidic acid [LPA],,,,,,,,,,,,,about 1.5 fold
